Earlier results as cited in patent US20220313582A1, “METHOD FOR DYEING KERATINOUS MATERIAL, COMPRISING THE USE OF AN ORGANOSILICON COMPOUND, A CHROMOPHORIC COMPOUND AND A FILM-FORMING POLYMER II” (Henkel AG & Co. KGaA, priority 2019, published 2022).

Details: for solubility in water: 25° C.

Structure (SMILES) | solubility in water | solubility in water (in words) (at 25° C.)
O=S(=O)([O-])c1ccc(N=Nc2c(O)ccc3ccccc23)cc1.[Na+] [Acid Orange 7, sodium salt of 4-[(2-hydroxy-1-naphthyl)azo]benzene sulphonate] | more than 7 g/L | 
O=C([O-])C1=NN(c2ccc(S(=O)(=O)[O-])cc2)C(=O)C1N=Nc1ccc(S(=O)(=O)[O-])cc1.[Na+].[Na+].[Na+] (stereo not shown) [Acid Yellow 23, trisodium salt of 4,5-dihydro-5-oxo-1-(4-sulfophenyl)-4-((4-sulfophenyl)azo)-1H-pyrazole-3-carboxylic acid] |  | highly soluble
O=C([O-])c1c(Cl)c(Cl)c(Cl)c(Cl)c1-c1c2c(Br)cc(=O)c(Br)c-2oc2c(Br)c(O)cc(Br)c12.O=C([O-])c1c(Cl)c(Cl)c(Cl)c(Cl)c1-c1c2c(Br)cc(=O)c(Br)c-2oc2c(Br)c(O)cc(Br)c12.[Na+].[Na+] [Acid Red 92, disodium salt of 3,4,5,6-tetrachloro-2-(1,4,5,8-tetrabromo-6-hydroxy-3-oxoxanthen-9-yl)benzoic acid] | greater than 10 g/L | 
Nc1cc(S(=O)(=O)[O-])cc2cc(S(=O)(=O)[O-])c(N=Nc3ccccc3)c(O)c12.[Na+].[Na+] [Acid Red 33, disodium salt of 5-amino-4-hydroxy-3-(phenylazo)-naphthalene-2,7-disulphonate] | 2500 µg/mL | 
